In patent publication EP0142057A2, “Thiazoloquinazoline derivatives, their preparation and pharmaceutical compositions containing same” (F. HOFFMANN-LA ROCHE AG, priority 1983, dated 1985):
Structures can show the parent of a compound that is named as a salt.

How the values were obtained:
TXA2 synthase = molecular target: T1, TXA2 synthase (Homo sapiens, UniProt P24557); assay: Thromboxane synthase inhibition, in vitro; assay type: biochemical; details: at 10^-7M; microsomal fractions from human platelets; read-out: TXA2Synthase Inhibition (% at 10^-7M)
T1 construct: using microsomal fractions from human platelets as enzyme source; from tissue; host or cells: human platelets (microsomal fraction)
T1 sequence (P24557 1-533): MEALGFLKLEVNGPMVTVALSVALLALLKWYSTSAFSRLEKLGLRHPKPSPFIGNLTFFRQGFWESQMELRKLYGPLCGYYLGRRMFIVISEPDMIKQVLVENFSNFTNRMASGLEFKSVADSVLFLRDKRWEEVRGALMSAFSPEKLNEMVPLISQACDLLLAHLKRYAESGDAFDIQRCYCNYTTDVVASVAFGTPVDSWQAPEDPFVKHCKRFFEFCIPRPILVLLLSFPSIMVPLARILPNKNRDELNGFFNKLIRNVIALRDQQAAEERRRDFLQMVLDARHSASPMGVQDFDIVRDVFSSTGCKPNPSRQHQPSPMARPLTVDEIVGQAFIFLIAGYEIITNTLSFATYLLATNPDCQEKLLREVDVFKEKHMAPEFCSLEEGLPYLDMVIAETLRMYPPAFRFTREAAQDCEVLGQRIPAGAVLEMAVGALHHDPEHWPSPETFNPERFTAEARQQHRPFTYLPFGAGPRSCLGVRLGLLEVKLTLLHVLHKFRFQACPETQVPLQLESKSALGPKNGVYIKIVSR
Protocol: TXA2 synthase activity is measured by following the conversion of ^14C-prostaglandin endoperoxide (PGH2) to ^14C-thromboxane A2 (TXA2) using microsomal fractions from human platelets as enzyme source. In the aqueous incubation medium, the TXA2 decomposes rapidly into TXB2. The amount of TXA2 synthase is adjusted so that under the conditions of the assay approximately 80-90% of the substrate, PGH2, is converted to product in control tubes. To prepare ^14C-PGH2, ^14C-AA (50-60 mCi/mmole: Rose Chem.) is incubated with sheep seminal vesicular gland microsomes for 1.5 minutes at 37°C and then the ^14C-PGH2 is extracted with diethylether, purified on columns of Sephadex LH-20 or silicic acid, and stored in acetone at -70°C. Incubations are done as follows. Sufficient ^14C-PGH2 to yield a final substrate concentration of 10 µM (30,000 cpm) is added to the incubation tubes and then the acetone is removed under nitrogen. The tubes are placed in an ice bath and then 215 1 of ice cold phosphate buffered saline, 10 1 of ethanol (control) or of test drug in ethanol, and 25 1 of the microsomal suspension are added with mixing in that order as rapidly as possible. The tubes are incubated at 22°C for 2 minutes, the reaction is stopped and then the radioactive products and the uncoverted PGH2 are extracted and analyzed by thin layer chromatography. […] The amount of ^14C-PGH2 converted to products was used as a measure of TXA2 synthase activity. Inhibitors were tested initially at a final concentration of 100 µM. Results obtained with representative compounds of the present invention in this assay are summarized hereafter in Table I.

[1] = system: Guinea Pig Bronchoconstriction; assay: Guinea pig bronchoconstriction, in vivo (leukotriene E4 challenge); parameters: species or system guinea pigs; details: for Guinea Pig Broncho-constriction % Inhibition (10 mg/kg i.v.): Table II; for Guinea Pig Broncho-constriction % Inhibition (10 mg/kg i.v.) / inhibition: leukotriene E4 challenge; for inhibition: 10 mg/kg, i.v.; for oral activity: orally 100 mg/kg, 2 hours prior to challenge with leukotriene E4
Protocol: Male guinea pigs (Hostley strain) weighing 300 to 450 grams are anesthetized with urethane (2 g/kg) intraperitoneally and a polyethylene cannula is inserted into the jugular vein for intravenous drug administration. Tracheal pressure is recorded from a cannula inserted in the trachea and connected to a Statham pressure transducer. Respiration is paralyzed with succinyl choline (1.2 mg/kg, i.v.) and the animals are mechanically respirated (Howard rodent respirator) at 40 breaths/minute and 2.5 ml tidal volume. Two minutes thereafter, propranolol (0.1 mg/kg, i.v.) is administered. Five minutes later, the animals are pretreated intravenously for 30 seconds (at 10 mg/kg) with test drug or control vehicle. The animals are subsequently challenged with a maximally constrictory dose of leukotriene E4 also administered intravenously. The change (cm H20) between pre and peak ventilatory pressure readings is averaged for three control animals and five drug treated animals. The percent inhibition is calculated from the following formula: [formula]
For determination of oral activity spontaneously breathing animals are pretreated orally with drugs (100 mg/kg) for 2 hours (at 100 mg/kg) prior to challenge with leukotriene E4. […] When tested orally in this assay the two compounds of the invention were active. Results obtained with representative compounds of the present invention in this assay are summarized hereafter in Table II.

[2] = system: vascular permeability in rat skin; assay: Rat skin permeability, in vivo (LTE4-induced skin wheal); parameters: species or system rats; details: for Rat Skin Permeability % Inhibition (10mg/kg iv): Table II, LTE4 wheal; for reduction in the skin wheal size: 10 mg/kg i.v.
Protocol: In this model the ability of LTE4 to increase vascular permeability in rat skin was utilized. Anesthetized rats, pretreated for 30 minutes with an antihistamine pyrilamine maleate, 50 mg/kg i.p. and a serotonin antagonist, methyl- […] maleate (4 mg/kg i.p.), were injected intradermally with a standard dose of LTE4 which gave a maximum wheal (in 0.05 ml saline). After introduction of test drug (at 10 mg/kg i.v.) the animals were immediately treated intravenously with Evans blue dye i.v. (0.5%) in the tail vein resulting in the formation of a skin wheal. Thirty minutes later the animals were sacrificed and the skin wheal size was measured. The average response in 5 animals (4 intradermal injections per animal) treated with test compound was compared to that obtained in a similar group of control animals to determine the percent inhibition by the drug.

[3] = system: Rat Passive Cutaneous Anaphylaxis; assay: Passive cutaneous anaphylaxis (PCA) assay; assay type: in vivo, rats; details: for ED50: Rattus norvegicus, po, doses administered orally, read-out: Rat PCA Test ID50
Protocol: Male Sprague-Dawley rats obtained from Charles River Breeding Laboratories were used in the PCA assay. Two methods were used to prepare serum IgE antibody which is specific for egg albumin. In the first method homocytotropic antibody was obtained by injecting 180 to 200 g rats with 1.0 mg of egg albumin (Difco Laboratories, Detroit, Michigan) intramuscularly and 6.4 x 10^10 organisms of Bordetella pertussis vaccine (Eli Lilly and Co., Indiana- polis, Ind.) intraperitoneally. Serum collected from each animal 18-20 days after sensitization was pooled, separated into 1 ml aliquots, and kept frozen until further use. In the second method, rats weighing 150-200 g were immunized by the intraperitoneal injection of 0.5 ml of Bordetella pertussis vaccine (Cannaught Laboratories, Willowdale, Toronto, Canada, 20 optical units/ml) and 100 μg of egg albumin (Nutritional Biochemicals Corp., Cleveland. Ohio). Sixteen days later, Nipostrongylus brasi- […] (3000 larvae/0.1 ml) was administered subcutaneously, and on the 21st day, 10 μg of egg albumin in 0.5 ml of normal saline was administered intraperitoneally. On the 30th day, blood samples were collected by heart puncture; the serum was separated by centrifugation and refrigerated overnight at 5°C. After a 24 hour period, the samples were assayed for antibody activity by the passive cutaneous anaphylaxis method. Those serum samples which produced an average wheal diameter of 3 mm or greater following an intradermal injection of 0.05 ml of a 1:50 dilution of serum in normal saline were pooled, divided into aliquots, and kept frozen until further use. […] The passive cutaneous anaphylaxis assay was carried out in rats weighing 190-220 g in a manner similar to that of Goose and Blair (J. Goose and A.M.J.N. Blair, Immunology, 16, 749 [1969]). Rat IgE antiovalbumin in serum was prepared as described above. The IgE antiserum was titered with normal saline so that injections of 0.05 ml produced skin wheal diameters which averaged 7 to 10 mm. After a 24 hour sensitization period, 1 ml of an aqueous solution containing a mixture of 8 mg of egg albumin (Nutritional Biochemical Corp.. Cleveland, Ohio) and 5 mg of Evans blue dye ([…] Chemical Co., Inc., Harriman, N.Y.) was administered intravenously to each rat. Forty minutes after challenge, each animal was sacrificed by cervical dislocation, and the dorsal skin was removed for examination. The long and short axes of the blued area were measured on the inner surface of the skin with a metric vernier caliper (VWR Scientific Division of Univar, Rochester, N.Y.), and the average diameter was determined for each reaction. […] The procedure was usually conducted on five animals in the control and each of the treatment groups. Statistical analysis of the test results was conduced by the Student's t test of control vs. various treatments. The ID50 and 95% limits were determined by a modification of the Berkson minimum logic chi square method (J. Berkson, J. Am. Stat. Assoc., 48, 565 [1953]).

[4] = system: vascular permeability in rat skin; assay: Rat skin permeability, in vivo (LTE4-induced skin wheal); parameters: species or system rats; details: for oral activity: tested orally

SMILES: CC(C)c1ccc2nc3sc(C(=O)NCCCCCCc4cccnc4)cn3c(=O)c2c1
- inhibition at 0.1 µM (TXA2 synthase): 36%

SMILES: CC(C)c1ccc2nc3sc(C(=O)N(C)CCCCc4cccnc4)cn3c(=O)c2c1
- Guinea Pig Broncho-constriction % Inhibition (10 mg/kg i.v.) [1]: Inactive
- Rat Skin Permeability % Inhibition (10mg/kg iv) [2]: 72%

SMILES: CC(C)c1ccc2nc3sc(C(=O)NCCCCOc4cccnc4)cn3c(=O)c2c1
- inhibition at 0.1 µM (TXA2 synthase): 30%

SMILES: CCC(C)c1ccc2nc3sc(C(=O)NCCN(CC)CC)cn3c(=O)c2c1 (stereo not shown)
- Rat PCA Test (% Inhibition) 16 mg/kg ip [3]: 21%

SMILES: CCN(CC)CCOC(=O)c1cn2c(=O)c3cc(OC)ccc3nc2s1
- Rat PCA Test (% Inhibition) 16 mg/kg ip [3]: 100%
- Rat PCA Test (% Inhibition) 32 mg/kg po [3]: 100%
- ED50 [3]: 1.31 mg/kg

SMILES: CCN(CC)CCNC(=O)c1cn2c(=O)c3cc(C(C)C)ccc3nc2s1
- Rat PCA Test (% Inhibition) 32 mg/kg po [3]: 50%

SMILES: CCN(CC)CCNC(=O)c1cn2c(=O)c3cc(CC(C)C)ccc3nc2s1
- Rat PCA Test (% Inhibition) 16 mg/kg ip [3]: 31%

SMILES: CCN(CC)CCNC(=O)c1cn2c(=O)c3cc(C(C)C)cc(C(C)C)c3nc2s1 [7,9-Bis(1-methylethyl)-N-[2-(diethylamino)ethyl] -5-oxo-5H--thiazolo[2,3-b]quinazoline-2-carboxamide hydrochloride]
- Rat PCA Test (% Inhibition) 16 mg/kg ip [3]: 31%
- Rat PCA Test (% Inhibition) 32 mg/kg po [3]: 27%

SMILES: CCN(CC)CCOC(=O)c1cn2c(=O)c3cc(C(C)C)ccc3nc2s1 [7-(1-Methylethyl)-5-oxo-5H-thiazolo[2,3-b]quinazoline-2-carboxylic acid(2-diethylaminoethyl) ester hydrochloride]
- Rat PCA Test (% Inhibition) 16 mg/kg ip [3]: 100%
- Rat PCA Test (% Inhibition) 32 mg/kg po [3]: 100%
- ED50 [3]: 0.45 mg/kg

SMILES: CCCc1c(OCC(O)COc2ccc3c(=O)cc(C(=O)O)oc3c2CCC)ccc(C(C)=O)c1O (stereo not drawn) [7-[3-(4-acetyl-3-hydroxy-2-propylphenoxy) -2-hydroxypropoxy]-4-oxo-8-propyl-4H-l-benzopyran-2-carboxylic acid, reference compound]
- inhibition [1]: 98%
- oral activity [1]: inactive
- reduction in the skin wheal size [2]: 88%
- oral activity [4]: inactive

SMILES: CC(C)c1ccc2nc3sc(C(=O)NCCCCc4cccnc4)cn3c(=O)c2c1 [Example 3, 7-(1-Methylethyl)-5-oxo-N-[4-(3-pyridinyl)butyl]-5H-thiazolo[2,3-b]quinazoline-2-carboxamide]
- inhibition [1]: 68%
- Guinea Pig Broncho-constriction % Inhibition (10 mg/kg i.v.) [1]: 68%
- oral activity [1]: active
- reduction in the skin wheal size [2]: 35%
- Rat Skin Permeability % Inhibition (10mg/kg iv) [2]: 35%
- oral activity [4]: active

SMILES: CC(C)c1ccc2nc3sc(C(=O)NCCCCn4ccnc4)cn3c(=O)c2c1 [Example 6, N-[4-(1H-Imidazol-1-yl)butyl]-7-(1-methylethyl)-5-oxo-5H-thiazolo[2,3-b]quinazoline-2-carboxamide dihydrochloride 0.45 molar hydrate]
- inhibition [1]: 85%
- ED50 ([1]; Cavia porcellus, po, read-out: Guinea Pig Broncho-constriction ID50): 51 mg/kg
- Guinea Pig Broncho-constriction % Inhibition (10 mg/kg i.v.) [1]: 85%
- oral activity [1]: active
- reduction in the skin wheal size [2]: 61%
- Rat Skin Permeability % Inhibition (10mg/kg iv) [2]: 61%
- Rat Skin Permeability ID50 ([4]; iv): 10 mg/kg
- Rat Skin Permeability ID50 ([4]; po): 55 mg/kg
- oral activity [4]: active

SMILES: CCN(CC)CCOC(=O)c1cn2c(=O)c3cc(SC)ccc3nc2s1.Cl [Example 17, 7-(Methylthio)-5-oxo-5H-thiazolo[2,3-b]quinazoline-2-carboxylic acid (2-diethylaminoethyl) ester hydrochloride]
- Rat PCA Test (% Inhibition) 16 mg/kg ip [3]: 52%
- Rat PCA Test (% Inhibition) 32 mg/kg po [3]: 100%
- ED50 [3]: 2.85 mg/kg

SMILES: CC(C)c1ccc2nc3sc(C(=O)NCCCCc4cccnc4)cn3c(=O)c2c1 [the 1st table, row 4, 7-(1-Methylethyl)-5-oxo-N-[4-(3-pyridinyl)butyl]-5H-thiazolo[2,3-b]quinazoline-2-carboxamide]
- inhibition at 0.1 µM (TXA2 synthase): 73%

SMILES: CC(C)c1cc(C(C)C)c2nc3sc(C(=O)NCCCCc4cccnc4)cn3c(=O)c2c1 [the 1st table, row 5, 7,9-bis(1-methylethyl)-5-oxo-N-[4-(3-pyridinyl)butyl]-5H-thiazolo[2,3-b]quinazoline-2-carboxamide]
- inhibition at 0.1 µM (TXA2 synthase): 63%

SMILES: CC(C)c1cc(C(C)C)c2nc3sc(C(=O)NCCCCc4cccnc4)cn3c(=O)c2c1 [the 2nd table, row 8, 7,9-bis(1-methylethyl)-5-oxo-N-[4-(3-pyridinyl)butyl]-5H-thiazolo[2,3-b]quinazoline-2-carboxamide]
- Rat Skin Permeability % Inhibition (10mg/kg iv) [2]: 38%
